Eight compounds from ChEMBL document CHEMBL1201862, “PubChem BioAssay data set” (2004) can be followed below.

Test systems include RPMI-8226; LOX IMVI; CAKI-1; A549; HCT-15; OVCAR-5; MCF7; K562; SF-539; CCRF-CEM; SF-268; UACC-62; U-251; RXF 393; NCI-H460; M14; DU-145; MDA-MB-435; HOP-62.
Holding throughout (assay): inhibition of tumour cell growth, NCI panel, 48 h

SMILES strings stand for the structures.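 How tested: cells in 96-well plates exposed to compound for 48 hours at five concentrations. The concentration for 50% growth inhibition is given as GI50.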 Active and inactive are the calls of the source. Cut-off read from the data, not from the text of the source: active = GI50 up to about 1.1 µM and inactive = higher. Some results are limits rather than exact numbers.

With `CC(C)c1ccc(C(O)(C(=O)O)c2ccc(C(C)C)cc2)cc1`, the GI50 in the assay on RPMI-8226 was 24.8 µM (inactive); in the assay with LOX IMVI, 68.5 µM (inactive); in the assay with CAKI-1 it was 45.8 µM (inactive); in the assay with A549, 33.1 µM (inactive); with HCT-15, 46.6 µM; in the assay with OVCAR-5, > 100 µM (inactive). The GI50 in the assay on MCF7 is 53.7 µM (inactive); in the assay with K562 it was 42.5 µM (inactive); with SF-539, > 100 µM (inactive); in the assay with CCRF-CEM, 49.4 µM (inactive); with SF-268, 33.7 µM (inactive); in the assay on UACC-62, 44.6 µM (inactive). Further, the GI50 was 18.2 µM (inactive) with U-251; 61.9 µM (inactive) with RXF 393; 47.2 µM (inactive) in the assay with NCI-H460; 63.5 µM (inactive) in the assay with M14; 61.2 µM (inactive) in the assay with DU-145; 95.7 µM (inactive) in the assay with MDA-MB-435. Moreover, in the assay with HOP-62, the GI50 is 28.3 µM (inactive).

`c1cnc2c(c1)Nc1cnncc1S2`: the GI50 in the assay on RPMI-8226 is > 100 µM (inactive); with LOX IMVI it was > 100 µM (inactive); in the assay with CAKI-1 it was 24.1 µM (inactive); in the assay on A549, > 100 µM (inactive); in the assay with HCT-15, > 100 µM; in the assay with OVCAR-5 it was > 100 µM (inactive). Moreover, the GI50 with MCF7 was > 100 µM (inactive); with K562, > 100 µM (inactive); with SF-539, > 100 µM (inactive); in the assay with CCRF-CEM, > 100 µM (inactive); with SF-268, > 100 µM (inactive); with UACC-62, 77.6 µM (inactive). Besides, the GI50 with U-251, in the assay on RXF 393, with NCI-H460, with M14, with DU-145 and in the assay with MDA-MB-435 was > 100 µM (inactive) each time. Besides, the GI50 in the assay on HOP-62 is > 100 µM (inactive).

Regarding `COC(=O)NC(Nc1ccccn1)(C(F)(F)F)C(F)(F)F`, the GI50 in the assay with RPMI-8226 is > 100 µM (inactive); in the assay with LOX IMVI, > 100 µM (inactive); in the assay on CAKI-1, > 100 µM (inactive); with A549 it was > 100 µM (inactive); with HCT-15, > 100 µM; in the assay with OVCAR-5, > 100 µM (inactive). The GI50 with MCF7, in the assay with K562, with SF-539, with CCRF-CEM, with SF-268 and in the assay on UACC-62 was > 100 µM (inactive) in each case. For the same compound, the GI50 with U-251 is > 100 µM (inactive); with RXF 393, 29.9 µM (inactive); with NCI-H460, > 100 µM (inactive); in the assay with M14 it was > 100 µM (inactive); in the assay on DU-145, > 100 µM (inactive); with MDA-MB-435, > 100 µM (inactive). The GI50 with HOP-62 is > 100 µM (inactive).

For `CC(=O)OC1CCC2(C)C(=CCC3C4CCC5(OC6CC(C)CN(C(C)=O)C6C5C)C(C)=C4C(=O)C32)C1` (configuration not stated), the GI50 is 14.6 µM (inactive) in the assay with RPMI-8226; 12 µM (inactive) in the assay on LOX IMVI; 19.6 µM (inactive) in the assay on CAKI-1; 14.3 µM (inactive) with A549; 15.7 µM in the assay with HCT-15; 19.2 µM (inactive) in the assay with OVCAR-5. Further, the GI50 is 10.5 µM (inactive) in the assay with MCF7; 16.3 µM (inactive) with K562; 20.4 µM (inactive) in the assay on SF-539; > 100 µM (inactive) with CCRF-CEM; 16 µM (inactive) with SF-268; 5.35 µM (inactive) with UACC-62. In addition, the GI50 with U-251 was 16.2 µM (inactive); in the assay on RXF 393 it was 16.6 µM (inactive); with NCI-H460 it was 15.7 µM (inactive); in the assay with M14, 12.7 µM (inactive); in the assay with DU-145, 30.8 µM (inactive); in the assay with MDA-MB-435 it was 15.3 µM (inactive). In addition, the GI50 with HOP-62 is 20.4 µM (inactive).

For the compound `CCOC(=O)C(Cc1ccc(OC(=O)c2ccc(OC)cc2OC)cc1)NC(=O)C(F)(F)F` (configuration not stated), the GI50 is 20.3 µM (inactive) in the assay with RPMI-8226; 18.6 µM (inactive) with LOX IMVI; 29 µM (inactive) in the assay with CAKI-1; 36.2 µM (inactive) in the assay with A549; 21.1 µM with HCT-15; > 100 µM (inactive) in the assay with OVCAR-5. Moreover, the GI50 was 19.7 µM (inactive) in the assay on MCF7; 29.6 µM (inactive) in the assay on K562; 23.2 µM (inactive) in the assay on SF-539; 19.2 µM (inactive) in the assay with CCRF-CEM; 31.1 µM (inactive) in the assay with SF-268; 16.1 µM (inactive) with UACC-62. Also, the GI50 with U-251 is 32.1 µM (inactive); in the assay with RXF 393 it was 19.6 µM (inactive); in the assay on NCI-H460, 34.8 µM (inactive); in the assay with M14, 17.5 µM (inactive); with DU-145, 19.8 µM (inactive); with MDA-MB-435, 18.7 µM (inactive). In addition, the GI50 in the assay on HOP-62 was 21.3 µM (inactive).

`COC(OC)C1OC(CO)C(n2cc(C)c(=O)[nH]c2=O)C1O` (configuration not stated): the GI50 in the assay with RPMI-8226 was > 100 µM (inactive); in the assay on LOX IMVI it was > 100 µM (inactive); with CAKI-1, > 100 µM (inactive); in the assay with A549 it was > 100 µM (inactive); in the assay with HCT-15, > 100 µM; in the assay with OVCAR-5, > 100 µM (inactive). Further, the GI50 with MCF7, in the assay with K562, in the assay with SF-539, with CCRF-CEM, in the assay on SF-268 and in the assay on UACC-62 was > 100 µM (inactive) throughout. Further, the GI50 with U-251 was > 100 µM (inactive); with RXF 393, 61.7 µM (inactive); in the assay on NCI-H460 it was > 100 µM (inactive); with M14 it was > 100 µM (inactive); in the assay on DU-145 it was > 100 µM (inactive); in the assay on MDA-MB-435 it was > 100 µM (inactive). For the same compound, the GI50 with HOP-62 is > 100 µM (inactive).

On to `CO/N=C(/C(=O)OC)c1ccccc1COc1cccc(C(F)(F)F)c1`, for which the GI50 is 6.18 µM (inactive) with RPMI-8226; 22.9 µM (inactive) with LOX IMVI; 12.1 µM (inactive) with CAKI-1; 38.1 µM (inactive) in the assay on A549; 29.2 µM in the assay with HCT-15; 76.2 µM (inactive) in the assay with OVCAR-5. The GI50 with MCF7 was 25.3 µM (inactive); in the assay with K562, 18.5 µM (inactive); with SF-539, 54.1 µM (inactive); in the assay with CCRF-CEM, 16 µM (inactive); in the assay with SF-268, 35.5 µM (inactive); with UACC-62, 18.2 µM (inactive). The GI50 is 36.4 µM (inactive) in the assay with U-251; 26.4 µM (inactive) in the assay with RXF 393; 28.8 µM (inactive) with NCI-H460; 24.6 µM (inactive) in the assay with M14; 26.5 µM (inactive) with DU-145; 29.3 µM (inactive) with MDA-MB-435. Also, in the assay with HOP-62, the GI50 is 21.2 µM (inactive).

With `Cc1cc2ccc(OC(=O)c3ccc(NC(=N)N)cc3)cc2oc1=O`, the GI50 in the assay with RPMI-8226 is 22.2 µM (inactive); in the assay with LOX IMVI, 30.8 µM (inactive); in the assay on CAKI-1, 43.5 µM (inactive); in the assay on A549, 36.2 µM (inactive); in the assay on HCT-15, > 100 µM; in the assay with OVCAR-5 it was 34.3 µM (inactive). For the same compound, the GI50 in the assay on MCF7 is 22.1 µM (inactive); in the assay with K562, 25.6 µM (inactive); with SF-539, 24.5 µM (inactive); with CCRF-CEM, 30.5 µM (inactive); with SF-268 it was 25.2 µM (inactive); in the assay with UACC-62, 26.9 µM (inactive). Also, the GI50 in the assay on U-251 was 21.6 µM (inactive); in the assay on RXF 393, 33.3 µM (inactive); in the assay with NCI-H460, 31.4 µM (inactive); in the assay with M14, 28.8 µM (inactive); with DU-145 it was 76.9 µM (inactive); in the assay with MDA-MB-435, 20 µM (inactive). The GI50 in the assay with HOP-62 is 18.7 µM (inactive).
